Assay results: ChEMBL document CHEMBL3351367, “Base-dependent formation of cis and trans olefins and their application in the synthesis of 5-oxo-ETE receptor antagonists” (Bioorg Med Chem Lett, 2014)

Molecular target: Oxoeicosanoid receptor 1 (Homo sapiens, UniProt Q8TDS5)
Experiment: Antagonist activity at 5-oxo-ETE receptor in human neutrophils assessed as inhibition of 5-oxo-ETE-induced Ca2+ mobilization incubated for 2 mins prior to 5-oxo-ETE addition by indo-1 staining-based spectrofluorometry
Type: functional

Chain of Oxoeicosanoid receptor 1 (Q8TDS5 whole entry): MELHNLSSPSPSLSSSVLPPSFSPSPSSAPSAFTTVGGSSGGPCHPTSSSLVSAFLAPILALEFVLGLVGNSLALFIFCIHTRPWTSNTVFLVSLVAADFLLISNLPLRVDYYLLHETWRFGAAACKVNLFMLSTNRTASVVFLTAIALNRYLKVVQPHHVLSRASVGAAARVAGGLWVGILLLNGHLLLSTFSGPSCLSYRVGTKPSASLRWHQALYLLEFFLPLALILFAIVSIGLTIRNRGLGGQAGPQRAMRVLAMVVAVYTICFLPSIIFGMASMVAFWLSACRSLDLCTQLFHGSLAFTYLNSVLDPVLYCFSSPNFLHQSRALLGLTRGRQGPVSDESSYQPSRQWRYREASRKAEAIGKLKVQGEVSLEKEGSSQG

IC50 [µM]	Compound
18.5	CCCC/C=C/c1cc2ccc(Cl)cc2n1C(=O)CC(C)CC(=O)O (configuration not stated)
0.46	CCCC/C=C\c1cc2ccc(Cl)cc2n1C(=O)CC(C)CC(=O)O (configuration not stated)
